“Also recorded” adds a separate entry of the source. Where two headings read alike, the source gives them in different places. Marks after values point to notes of the source that are not given here.
Tests used:
[1] = test system: PD-1-positive CD4 and CD8 and PD-1-negative CD4 T cells; test: FACS analysis of PD-1 on T cells in PBMC samples of subjects given RAD001; assay type: in vivo, human
[2] = test system: H1N1 A/California/07/2009; test: Hemagglutination inhibition titer and seroconversion after 2012 seasonal influenza vaccination; assay type: in vivo, human; conditions: for HI GMT ratio, A/H1N1: GMT at week 4 post vaccination/GMT at baseline; for Percent of subjects with seroconversion, H1N1: 4 weeks after vaccination
From the text: (§1) Results were expressed as fluorescence intensity.
(§2) The primary analysis of geometric mean titer ratios was done using a normal Bayesian regression model with non-informative priors. This model was fitted to each antibody titer on the log scale. The primary outcome in each model was the Day 84 measurement. The Day 63 measurement was included in the outcome vector. The model fitted using SAS 9.2 proc mixed with the prior statement. The covariance structure of the matrix was considered as unstructured (option type=UN). A flat prior was used. For the secondary analysis of seroconversion rates, logistic regression was used.
(§3) The ability of RAD001 to improve immune function in elderly volunteers was evaluated by measuring the serologic response to the 2012 seasonal influenza vaccine. The hemagglutination inhibition (HI) geometric mean titers (GMT) to each of the 3 influenza vaccine strains at baseline and 4 weeks after influenza vaccination are provided in Table 10. The primary analysis variable was the HI GMT ratio (4 weeks post vaccination/baseline). […] This endpoint was chosen because a 1.2-fold increase in the influenza GMT ratio induced by the MF-59 vaccine adjuvant was associated with a decrease in influenza illness (Iob, A et al. (2005) Epidemiol Infect 133:687-693).
(§4) Rates of seroconversion 4 weeks after influenza vaccination were also evaluated. Seroconversion was defined as the change from a negative pre-vaccination titer (i.e., HI titer <1:10) to post-vaccination HI titer ≥1:40 or at least 4-fold increase from a non-negative (≥1:10) pre-vaccination HI titer.

B/Brisbane/60/2008 = test: as above; assay type: in vivo, human; conditions: for HI GMT ratio, B: GMT at week 4 post vaccination/GMT at baseline; for Percent of subjects with seroconversion, B: 4 weeks after vaccination
From the text: as §1, §2, §3, §4

H3N2 A/Victoria/210/2009 = test: as above; assay type: in vivo, human; conditions: for HI GMT ratio, A/H3N2: GMT at week 4 post vaccination/GMT at baseline; for Percent of subjects with seroconversion, H3N2: 4 weeks after vaccination
From the text: as §1, §2, §3, §4

P70 S6K = test: Inhibition of P70 S6K activity in HeLa cells in vitro; conditions: Homo sapiens, read-out: % P70 S6K inhibition
[3] = test system: PD-1 positive CD4 and CD8 T cells; test: Immunophenotyping of PBMC by flow cytometry; assay type: in vivo, human
[4] = test system: A/H3N2 strain A/Victoria/361/11; test: HI titer and seroconversion to heterologous influenza strain; assay type: in vivo, human; conditions: for Percentage of subjects who seroconvert to heterologous strain A/H3N2 A/Victoria/361/11: 4 weeks after seasonal influenza vaccination
[5] = test system: 3 influenza vaccine strains; test: Primary endpoint: HI GMT ratio relative to placebo in at least 2 out of 3 influenza vaccine strains; assay type: in vivo, human; conditions: for primary endpoint (>=1.2-fold GMT increase relative to placebo in at least 2 of 3 strains): ITT population
From the text: as §2
The intention to treat population was defined as all subjects who received at least one full dose of study drug and who had no major protocol deviations impacting efficacy data. 199 out of the total of 218 subjects enrolled in the study were in the intention to treat population.
as §3
Elderly volunteers >=65 years of age were randomized to one of the 3 RAD001 treatment groups (50 subjects per arm) or placebo (20 subjects per arm). […] Response to influenza vaccination was assessed by measuring the geometric mean titers (GMTs) by hemagglutination inhibition assay to the 3 influenza strains (H1N1, H3N2 and B influenza subtypes) in the influenza vaccine 4 weeks after vaccination. […] Antibody titers to 7 of the serotypes were measured in our subjects.

[6] = Energy and exercise questionnaires one year after dosing; assay type: in vivo, human; conditions: 0.5 mg daily cohort
[7] = cited from earlier work
pneumococcal serotypes = test: Antibody titers after pneumococcal vaccination (Pneumovax 23); assay type: in vivo, human; conditions: 7 serotypes measured; all 3 RAD cohorts
Method: Elderly volunteers >=65 years of age were randomized to one of the 3 RAD001 treatment groups (50 subjects per arm) or placebo (20 subjects per arm). Subjects were treated with study drug for 6 weeks, given a 2 week break, and then received influenza (Aggrippal, Novartis) and pneumoccal (Pneumovax 23, Merck), vaccinations. Response to influenza vaccination was assessed by measuring the geometric mean titers (GMTs) by hemagglutination inhibition assay to the 3 influenza strains (H1N1, H3N2 and B influenza subtypes) in the influenza vaccine 4 weeks after vaccination. The primary endpoints of the study were (1) safety and tolerability and (2) a 1.2 fold increase in influenza titers as compared to placebo in 2/3 of the influenza vaccine strains 4 weeks after vaccination. This endpoint was chosen because a 1.2 fold increase in influenza titers is associated with a decrease in influenza illness post vaccination, and therefore is clinically relevant. […] The pneumococcal vaccine contains antigens from 23 pneumococcal serotypes. Antibody titers to 7 of the serotypes were measured in our subjects.

[8] = week 6, pooled cohort, adjusted for baseline PD-1
[9] = week 12, pooled cohort, adjusted for baseline PD-1
[10] = week 12, 0.5 mg/Day, 5 mg/Week and 20 mg/Week cohorts
[11] = Baseline (2 weeks prior to influenza vaccination), 0.5 mg daily, N = 50
[12] = Baseline (2 weeks prior to influenza vaccination), 5 mg weekly, N = 49
[13] = Baseline (2 weeks prior to influenza vaccination), 20 mg weekly, N = 49
[14] = Intention to Treat Population, 0.5 mg, N = 48
[15] = Intention to Treat Population, 5 mg, N = 49
[16] = Intention to Treat Population, 20 mg, N = 48
[17] = Subjects with Baseline Titers <=40, 0.5 mg
[18] = Subjects with Baseline Titers <=40, 5 mg
[19] = Subjects with Baseline Titers <=40, 20 mg
[20] = Week 4 after influenza vaccination, 0.5 mg daily, N = 50
[21] = Week 4 after influenza vaccination, 5 mg weekly, N = 49
[22] = Week 4 after influenza vaccination, 20 mg weekly, N = 49

SMILES: CO[C@H]1C[C@@H]2CC[C@@H](C)[C@@](O)(O2)C(=O)C(=O)N2CCCC[C@H]2C(=O)O[C@H]([C@H](C)C[C@@H]2CC[C@@H](OCCO)[C@H](OC)C2)CC(=O)[C@H](C)/C=C(\C)[C@@H](O)[C@@H](OC)C(=O)[C@H](C)C[C@H](C)/C=C/C=C/C=C/1C [RAD001, (1R,9S,12S,15R,16E,18R,19R,21R,23S,24E,26E,28E,30S,32S,35R)-1,18-dihydroxy-12-{(1R)-2-[(1S,3R,4R)-4-(2-hydroxyethoxy)-3-methoxycyclohexyl]-1-methylethyl}-19,30-dimethoxy-15,17,21,23,29,35-hexamethyl-11,36-dioxa-4-aza-tricyclo[30.3.1.04,9]hexatriaconta-16,24,26,28-tetraene-2,3,10,14,20-pentaone]
- decrease in PD-1+ CD4 T cells compared to placebo [1, 8]: 30.2%
- decrease in PD-1-positive CD8 T cells compared to placebo [1, 8]: 37.4%
- decrease in PD-1-positive CD4 T cells compared to placebo [1, 9]: 32.7%
- decrease in PD-1-positive CD8 T cells compared to placebo [1, 9]: 41.4%
- decrease in PD-1-positive CD4 T cells as compared to placebo [1, 10]: −37.1-−28.5%
- decrease in PD-1-positive CD8 T cells as compared to placebo [1, 10]: −43.3-−38.5%
- increase in PD-1-negative CD4 T cells as compared to placebo [1, 10]: 3.0-4.9%
- HI GMT, A/H1N1 [2, 11]: 102.8
- HI GMT, A/H1N1 [2, 12]: 84.2
- HI GMT, A/H1N1 [2, 13]: 90.1
- HI GMT ratio, A/H1N1 ([2]; 0.5 mg daily, N = 50): 2.6
- HI GMT ratio, A/H1N1 ([2]; 5 mg weekly, N = 49): 2.5
- HI GMT ratio, A/H1N1 ([2]; 20 mg weekly, N = 49): 1.8
- Percent of subjects with seroconversion, H1N1 [2, 14]: 27%
- Percent of subjects with seroconversion, H1N1 [2, 15]: 27%
- Percent of subjects with seroconversion, H1N1 [2, 16]: 17%
- Percent of subjects with seroconversion, H1N1 [2, 17]: 42%
- Percent of subjects with seroconversion, H1N1 [2, 18]: 45%
- Percent of subjects with seroconversion, H1N1 [2, 19]: 36%
- HI GMT, A/H1N1 [2, 20]: 190.2
- HI GMT, A/H1N1 [2, 21]: 198.73
- HI GMT, A/H1N1 [2, 22]: 129.7
- HI GMT, B (B/Brisbane/60/2008; [11]): 44.2
- HI GMT, B (B/Brisbane/60/2008; [12]): 64.8
- HI GMT, B (B/Brisbane/60/2008; [13]): 58.0
- HI GMT ratio, B (B/Brisbane/60/2008; 0.5 mg daily, N = 50): 2.5
- HI GMT ratio, B (B/Brisbane/60/2008; 5 mg weekly, N = 49): 2.2
- HI GMT ratio, B (B/Brisbane/60/2008; 20 mg weekly, N = 49): 2.1
- Percent of subjects with seroconversion, B (B/Brisbane/60/2008; [14]): 27%
- Percent of subjects with seroconversion, B (B/Brisbane/60/2008; [15]): 22%
- Percent of subjects with seroconversion, B (B/Brisbane/60/2008; [16]): 19%
- Percent of subjects with seroconversion, B (B/Brisbane/60/2008; [17]): 40* Percent
- Percent of subjects with seroconversion, B (B/Brisbane/60/2008; [18]): 33%
- Percent of subjects with seroconversion, B (B/Brisbane/60/2008; [19]): 28%
- HI GMT, B (B/Brisbane/60/2008; [20]): 98.4
- HI GMT, B (B/Brisbane/60/2008; [21]): 117.3
- HI GMT, B (B/Brisbane/60/2008; [22]): 99.2
- HI GMT, A/H3N2 (H3N2 A/Victoria/210/2009; [11]): 106.8
- HI GMT, A/H3N2 (H3N2 A/Victoria/210/2009; [12]): 126.04
- HI GMT, A/H3N2 (H3N2 A/Victoria/210/2009; [13]): 137.1
- HI GMT ratio, A/H3N2 (H3N2 A/Victoria/210/2009; 0.5 mg daily, N = 50): 2.1
- HI GMT ratio, A/H3N2 (H3N2 A/Victoria/210/2009; 5 mg weekly, N = 49): 2.0
- HI GMT ratio, A/H3N2 (H3N2 A/Victoria/210/2009; 20 mg weekly, N = 49): 2.1
- Percent of subjects with seroconversion, H3N2 (H3N2 A/Victoria/210/2009; [14]): 27%
- Percent of subjects with seroconversion, H3N2 (H3N2 A/Victoria/210/2009; [15]): 24%
- Percent of subjects with seroconversion, H3N2 (H3N2 A/Victoria/210/2009; [16]): 25%
- Percent of subjects with seroconversion, H3N2 (H3N2 A/Victoria/210/2009; [17]): 64%
- Percent of subjects with seroconversion, H3N2 (H3N2 A/Victoria/210/2009; [18]): 53%
- Percent of subjects with seroconversion, H3N2 (H3N2 A/Victoria/210/2009; [19]): 71%
- HI GMT, A/H3N2 (H3N2 A/Victoria/210/2009; [20]): 194.4
- HI GMT, A/H3N2 (H3N2 A/Victoria/210/2009; [21]): 223.0
- HI GMT, A/H3N2 (H3N2 A/Victoria/210/2009; [22]): 223.0
- inhibition at 6 pM (P70 S6K): 0%
- inhibition at 32 pM (P70 S6K): 18%
- inhibition at 0.0008 µM (P70 S6K): 62%
- inhibition at 0.004 µM (P70 S6K): 90%
- inhibition at 0.02 µM (P70 S6K): 95%
- percentage of PD-1 negative CD4 T cells compared to placebo ([3]; RAD001 cohorts): increased
- percentage of CD4 PD-1 positive T cells ([3]; week 6 and 12, all RAD001 cohorts): decreased from baseline
- percentage of CD8 PD-1 positive cells ([3]; week 6 and 12, two lower dose RAD001 cohorts): decreased from baseline
- Percentage of subjects who seroconvert to heterologous strain A/H3N2 A/Victoria/361/11 ([4]; 0.5 mg daily): 38%
- Percentage of subjects who seroconvert to heterologous strain A/H3N2 A/Victoria/361/11 ([4]; 5 mg weekly): 39%*
- Percentage of subjects who seroconvert to heterologous strain A/H3N2 A/Victoria/361/11 ([4]; 20 mg weekly): 40%*
- increase in HI GMT ratio for heterologous strain versus placebo ([4]; RAD001 cohorts): higher
- H3N2 heterologous strain seroconversion rate ([4]; pooled RAD001 cohorts, versus 20% placebo, p=0.007): 39%
- primary endpoint (>=1.2-fold GMT increase relative to placebo in at least 2 of 3 strains) ([5]; 0.5 mg daily or 5 mg weekly): met the GMT primary endpoint
- primary endpoint (>=1.2-fold GMT increase relative to placebo in at least 2 of 3 strains) ([5]; 20 mg weekly): not higher dose (20 mg weekly) cohort met the primary endpoint; also recorded: unlike the 20 mg weekly dose, met the GMT primary endpoint
- increase in titers in subgroup versus ITT population ([5]; subjects with low baseline influenza titers (<=1:40)): greater RAD001-associated increase in titers
- self-reported energy and exercise ability compared to placebo [6]: increased energy and exercise ability
- trough level of RAD001 ([7]; 10 mg daily oncology dosing regimen): approximately 20 ng/ml
- trough level of RAD001 ([7]; 0.75-1.5 mg bid transplant dosing regimen): approximately 3 ng/ml
- pneumococcal antibody titers compared to placebo (pneumococcal serotypes): 6/7 serotypes were increased

Source: patent US10357514B2, “Treatment of cancer using anti-CD19 Chimeric Antigen Receptor” (The Trustees of the University of Pennsylvania, priority 2014, dated 2019)
